Results on 39 molecules are retold here after US20130040935A1, “CYCLIC KETO-ENOLS FOR THERAPY” (BAYER INTELLECTUAL PROPERTY GMBH, priority 2010, published 2013).

The first assay addresses T1, human ACC1 (acetyl-coenzyme A carboxylase alpha transcript variant 1) (Homo sapiens, UniProt Q13085).
T1 construct: FLAG (C); made in house; host or cells: baculovirus-infected insect cells (Hi5)
The experiment in a line: Human ACC1 enzyme assay, Assay B1 (ADP-Glo). It is filed as biochemical.
Settings: not given
Background: ADP-Glo turns the ADP formed in a reaction into a luminescent signal.
`Cc1ccc(-c2ccc(C)c(C3=C(O)C4(CCCOC4)NC3=O)c2)cc1` (stereo not drawn) [1-14, 3-(4,4′-dimethylbiphenyl-3-yl)-4-hydroxy-7-oxa-1-azaspiro[4.5]dec-3-en-2-one]: the IC50 (as a rule, the concentration needed to halve the response being measured) turned out to be 3070 nM.

In the case of `Cc1ccc(-c2ccc(Cl)cc2)cc1C1=C(O)CN(C)C1=O` [1-16, 3-(4′-chloro-4-methylbiphenyl-3-yl)-4-hydroxy-1-methyl-1,5-dihydro-2H-pyrrol-2-one], the IC50 was 241 nM.

With `Cc1ccc(-c2cc(F)c(F)c(F)c2)cc1C1=C(O)C2(CCOCC2)NC1=O` [1-36, 4-hydroxy-3-(3′,4′,5′-trifluoro-4-methylbiphenyl-3-yl)-8-oxa-1-azaspiro[4.5]dec-3-en-2-one], half-maximal inhibition (IC50) required 1500 nM.

The molecule `CO[C@H]1CC[C@]2(CC1)NC(=O)C(c1cc(-c3ccc(F)cc3)ccc1Cl)=C2O` [1-44, (5s,8s)-3-(4-chloro-4′-fluorobiphenyl-3-yl)-4-hydroxy-8-methoxy-1-azaspiro[4.5]dec-3-en-2-one] gave a half-maximal inhibitory concentration (IC50) of 1700 nM.

As to `CC1OC2(CCC3(CC2)NC(=O)C(c2cc(-c4ccc(Cl)cc4)ccc2Cl)=C3O)OC1C` (stereo not drawn) [1-71, 11-(4,4′-dichlorobiphenyl-3-yl)-12-hydroxy-2,3-dimethyl-1,4-dioxa-9-azadispiro[4.2.4.2]tetradec-11-en-10-one], it took 912 nM to reach half-maximal inhibition (IC50).

In turn, `CCOC1CCC2(CC1)NC(=O)C(c1cc(-c3cccc(Cl)c3)ccc1C)=C2O` (stereo not drawn) [1-79, 3-(3′-chloro-4-methylbiphenyl-3-yl)-8-ethoxy-4-hydroxy-1-azaspiro[4.5]dec-3-en-2-one] displayed an IC50 of 2320 nM.

For the molecule `COC1CCC2(CC1)NC(=O)C(c1cc(-c3cc(F)ccc3F)ccc1C)=C2O` (stereo not drawn) [1-80, 3-(2′,5′-difluoro-4-methylbiphenyl-3-yl)-4-hydroxy-8-methoxy-1-azaspiro[4.5]dec-3-en-2-one], the concentration for half-maximal inhibition (IC50) came out at 2180 nM.

Molecule `Cc1ccc(-c2ccc(Cl)cc2)cc1C1=C(O)C2(CCCOC2)OC1=O` (stereo not drawn) [2-9, 3-(4′-chloro-4-methylbiphenyl-3-yl)-4-hydroxy-1,7-dioxaspiro[4.5]dec-3-en-2-one] returned an IC50 of 2220 nM.

Regarding `COC1CCCC2(C1)OC(=O)C(c1cc(-c3ccc(Cl)cc3)ccc1Cl)=C2O` (stereo not drawn) [2-13, 3-(4,4′-dichlorobiphenyl-3-yl)-4-hydroxy-7-methoxy-1-oxaspiro[4.5]dec-3-en-2-one], half-maximal inhibition (IC50) required 1020 nM.

For `Cc1ccc(-c2ccc(F)cc2)cc1C1=C(O)C2(CCCCC2)OC1=O` [2-21, 3-(4′-fluoro-4-methylbiphenyl-3-yl)-4-hydroxy-1-oxaspiro[4.5]dec-3-en-2-one], the midpoint of inhibition, the IC50, lay at 874 nM.

Take `Cc1ccc(-c2ccc(Cl)cc2)cc1C1=C(O)C2(CCOCC2)OC1=O` [2-37, 3-(4′-chloro-4-methylbiphenyl-3-yl)-4-hydroxy-1,8-dioxaspiro[4.5]dec-3-en-2-one]: inhibition was half-maximal at 1050 nM (IC50).

`Cc1ccc(-c2ccc(Cl)cc2)cc1C1=C(O)C(C)(C2CCCCC2)OC1=O` (stereo not drawn) [2-40, 3-(4′-chloro-4-methylbiphenyl-3-yl)-5-cyclohexyl-4-hydroxy-5-methylfuran-2(5H)-one] yielded a half-inhibitory concentration (IC50) of 1510 nM.

`Cc1ccc(-c2ccc(Cl)cc2)cc1C1=C(O)CC(C)CC1=O` (stereo not drawn) [7-1, 2-(4′-chloro-4-methylbiphenyl-3-yl)-3-hydroxy-5-methylcyclohex-2-en-1-one] came in with an IC50 of 932 nM.

In turn, `Cc1ccc(-c2ccc(F)cc2)c(C)c1C1C(=O)N2CCCCN2C1=O` [8-1, 2-(4′-fluoro-2,4-dimethylbiphenyl-3-yl)tetrahydro-1H-pyrazolo[1,2-a]pyridazine-1,3(2H)-dione] had an IC50 of 3560 nM.

The molecule `Cc1ccc(-c2ccc(F)cc2)c(C)c1C1C(=O)N2CCOCCN2C1=O` [8-7, 8-(4′-fluoro-2,4-dimethylbiphenyl-3-yl)tetrahydro-7H-pyrazolo[1,2-d][1,4,5]oxadiazepine-7,9(8H)-dione] displayed an IC50 of 6210 nM.

In turn, `O=C1C(c2cc(-c3ccc(Cl)cc3Cl)ccc2Cl)C(=O)N2CCOCCN12` [8-9, 8-(2′,4,4′-trichlorobiphenyl-3-yl)tetrahydro-7H-pyrazolo[1,2-d][1,4,5]oxadiazepine-7,9(8H)-dione] registered an IC50 of 682 nM.

As to `O=C1C(c2cc(-c3ccc(Cl)c(Cl)c3)ccc2Cl)C(=O)N2CCOCCN12` [8-10, 8-(3′,4,4′-trichlorobiphenyl-3-yl)tetrahydro-7H-pyrazolo[1,2-d][1,4,5]oxadiazepine-7,9(8H)-dione], half-maximal inhibition (IC50) required 2350 nM.

`O=C1C(c2cc(-c3ccc(F)cc3F)ccc2Cl)C(=O)N2CCOCCN12` [8-11, 8-(4-chloro-2′,4′-difluorobiphenyl-3-yl)tetrahydro-7H-pyrazolo[1,2-d][1,4,5]oxadiazepine-7,9(8H)-dione] yielded an IC50 of 1360 nM.

The assay is the same for the next values; noted with them: Assay B1, ADP-Glo; read-out: ACC 1 (=B1) IC50.
Take `COC1CCC2(CC1)OC(=O)C(c1cc(-c3ccccc3Cl)ccc1C)=C2O` (stereo not drawn) [2-7, 3-(2′-chloro-4-methylbiphenyl-3-yl)-4-hydroxy-8-methoxy-1-oxaspiro[4.5]dec-3-en-2-one]: the IC50 was determined as 2710 nM.

As for `Cc1ccc(-c2ccc(Cl)cc2)cc1C1=C(O)C2(CC2)OC1=O` [2-8, 6-(4′-chloro-4-methylbiphenyl-3-yl)-7-hydroxy-4-oxaspiro[2.4]hept-6-en-5-one], the IC50 stood at 1990 nM.

For `Cc1ccc(-c2ccc(F)c(F)c2)cc1C1=C(O)C2(CCCC2)OC1=O` [2-22, 3-(3′,4′-difluoro-4-methylbiphenyl-3-yl)-4-hydroxy-1-oxaspiro[4.4]non-3-en-2-one], the IC50 was found to be 2230 nM.

In the case of `Cc1ccc(-c2ccc(F)c(Cl)c2)cc1C1=C(O)C2(CCCC2)OC1=O` [2-23, 3-(3′-chloro-4′-fluoro-4-methylbiphenyl-3-yl)-4-hydroxy-1-oxaspiro[4.4]non-3-en-2-one], the IC50 came out at 2090 nM.

Consider `O=C1OC2(CCCC2)C(O)=C1c1cc(-c2cc(F)c(F)c(F)c2)ccc1Cl` [2-24, 3-(4-chloro-3′,4′,5′-trifluorobiphenyl-3-yl)-4-hydroxy-1-oxaspiro[4.4]non-3-en-2-one], for which the IC50 is 2090 nM.

As to `O=C1OC2(CCCCC2)C(O)=C1c1cc(-c2ccc(F)c(F)c2)ccc1Cl` [2-25, 3-(4-chloro-3′,4′-difluorobiphenyl-3-yl)-4-hydroxy-1-oxaspiro[4.5]dec-3-en-2-one], the IC50 amounted to 1200 nM.

Turning to `Cc1ccc(-c2ccc(Cl)cc2)cc1C1=C(O)C(C(C)(C)C)OC1=O` (stereo not drawn) [2-35, 5-tert-butyl-3-(4′-chloro-4-methylbiphenyl-3-yl)-4-hydroxyfuran-2(5H)-one], the IC50 is 1190 nM.

The same assay, now with this note: Assay B1; read-out: ACC 1 (=B1) IC50.
As for `Cc1ccc(-c2ccc(C)c(C3=C(O)C4(CCOCC4)NC3=O)c2)cc1` [1-15, 3-(4,4′-dimethylbiphenyl-3-yl)-4-hydroxy-8-oxa-1-azaspiro[4.5]dec-3-en-2-one], the IC50 was determined as 522 nM.

On to `Cc1ccc(-c2ccc(Cl)cc2)cc1C1=C(O)CN(CC(C)C)C1=O` [1-27, 3-(4′-chloro-4-methylbiphenyl-3-yl)-4-hydroxy-1-(2-methylpropyl)-1,5-dihydro-2H-pyrrol-2-one], for which the IC50 stood at 1940 nM.

On to `Cc1ccc(-c2ccc(F)c(F)c2)cc1C1=C(O)C2(CCOCC2)NC1=O` [1-37, 3-(3′,4′-difluoro-4-methylbiphenyl-3-yl)-4-hydroxy-8-oxa-1-azaspiro[4.5]dec-3-en-2-one], for which the IC50 is 850 nM.

On to `O=C1NC2(CCOCC2)C(O)=C1c1cc(-c2cc(F)c(F)c(F)c2)ccc1Cl` [1-38, 3-(4-chloro-3′,4′,5′-trifluorobiphenyl-3-yl)-4-hydroxy-8-oxa-1-azaspiro[4.5]dec-3-en-2-one], for which the IC50 amounted to 747 nM.

For `Cc1ccc(-c2ccc(Cl)c(C3=C(O)C4(CCOCC4)NC3=O)c2)cc1F` [1-39, 3-(4-chloro-3′-fluoro-4′-methylbiphenyl-3-yl)-4-hydroxy-8-oxa-1-azaspiro[4.5]dec-3-en-2-one], the concentration for half-maximal inhibition (IC50) is 1980 nM.

As for `O=C1NC2(CCOCC2)C(O)=C1c1cc(-c2ccc(F)cc2)ccc1Cl` [1-41, 3-(4-chloro-4′-fluorobiphenyl-3-yl)-4-hydroxy-8-oxa-1-azaspiro[4.5]dec-3-en-2-one], the IC50 was 1140 nM.

Turning to `COCCC1(C)NC(=O)C(c2cc(-c3ccc(Cl)cc3)ccc2C)=C1O` (stereo not drawn) [1-47, 3-(4′-chloro-4-methylbiphenyl-3-yl)-4-hydroxy-5-(2-methoxyethyl)-5-methyl-1,5-dihydro-2H-pyrrol-2-one], the IC50 came to 3190 nM.

In the case of `Cc1ccc(-c2ccc(Cl)cc2)cc1C1C(=O)N2CCCCN2C1=O` [8-3, 2-(4′-chloro-4-methylbiphenyl-3-yl)tetrahydro-1H-pyrazolo[1,2-a]pyridazine-1,3(2H)-dione], the IC50 was found to be 1050 nM.

In the case of `O=C1C(c2cc(-c3ccc(F)c(Cl)c3)ccc2Cl)C(=O)N2CCCCN12` [8-4, 2-(3′,4-dichloro-4′-fluorobiphenyl-3-yl)tetrahydro-1H-pyrazolo[1,2-a]pyridazine-1,3(2H)-dione], the IC50 came to 3920 nM.

Consider `Cc1ccc(-c2ccc(F)cc2F)cc1C1C(=O)N2CCOCCN2C1=O` [8-5, 8-(2′,4′-difluoro-4-methylbiphenyl-3-yl)tetrahydro-7H-pyrazolo[1,2-d][1,4,5]oxadiazepine-7,9(8H)-dione], for which the IC50 was 6940 nM.

`Cc1ccc(-c2ccc(Cl)cc2)cc1C1C(=O)N2CCOCCN2C1=O` [8-6, 8-(4′-chloro-4-methylbiphenyl-3-yl)tetrahydro-7H-pyrazolo[1,2-d][1,4,5]oxadiazepine-7,9(8H)-dione]: the 50% inhibitory concentration (IC50) was 1280 nM.

Consider `Cc1ccc(-c2ccc(Cl)cc2)cc1C1C(=O)N2CC(C)(F)CN2C1=O` [8-12, 2-(4′-chloro-4-methylbiphenyl-3-yl)-6-fluoro-6-methyldihydro-1H,5H-pyrazolo[1,2-a]pyrazole-1,3(2H)-dione], for which the IC50 is 783 nM.

In the case of `CC1(F)CN2C(=O)C(c3cc(-c4ccc(Cl)cc4)ccc3Cl)C(=O)N2C1` [8-13, 2-(4,4′-dichlorobiphenyl-3-yl)-6-fluoro-6-methyldihydro-1H,5H-pyrazolo[1,2-a]pyrazole-1,3(2H)-dione], the IC50 amounted to 1360 nM.

For the molecule `Cc1ccc(-c2ccc(Cl)cc2)cc1C1C(=O)N(C)N(C)C1=O` [8-14, 4-(4′-chloro-4-methylbiphenyl-3-yl)-1,2-dimethyl-1H-pyrazole-3,5(2H,4H)-dione], the half-inhibitory concentration (IC50) was found to be 7460 nM.
